Source: article PMC7700029, “Repurposing Napabucasin as an Antimicrobial Agent against Oral Streptococcal Biofilms” (BioMed Research International, 2020)
Values after ≈ are worked out from the molar mass of the structure shown.

Key:
S. gordonii biofilm [1] = test: Biofilm formation inhibition, crystal violet (MBIC); format: cell-based, Streptococcus gordonii; details: 24 h, 90% or more inhibition of biofilm formation
Method: (§1) The minimum biofilm inhibition concentration (MBIC) was used to evaluate the effect of NAP on biofilm formation. S. mutans, S. gordonii, or S. sanguinis (1 × 10^7CFU/mL, 10 μL/well) were grown in BHIS with twofold serial dilution of NAP (200 μL/well) ranging from 0.12 to 125 μg/mL at 37°C for 24 h. A parallel study was also performed with BHIS as a negative control. Then, the supernatants from the wells were decanted, and the adherent biofilm was washed three times with PBS to remove the planktonic cells. Fixed with methanol for 15 min and air-dried at room temperature, the biofilm was stained with 0.1% (wt/vol) crystal violet (Sigma) for 5 min, rinsed with deionized water until blank control wells were colorless, and added 200 μL of 95% ethanol to each crystal violet-stained well. Subsequently, the plate was rocked 30 min at room temperature, and the absorbance at 595 nm was recorded. The percentage of inhibition was calculated using the equation: (A595ofnegativecontrol − A595ofthetestgroup)/A595ofnegativecontrol × 100%.

S. sanguinis biofilm [2] = test: Reduction of 1-day-developed biofilm, crystal violet (MBRC); format: cell-based, Streptococcus sanguinis; details: S. sanguinis 1-day-developed biofilm, 24 h, 90% or more reduction
Method: (§2) The effect of NAP on the 1-day-developed biofilm was examined by the minimum biofilm reduction concentration (MBRC). S. mutans, S. gordonii, or S. sanguinis (1 × 10^7CFU/mL, 200 μL/well) in BHIS was added to a 96-well polystyrene tissue culture plate. After anaerobic incubation at 37°C for 24 h, the supernatants were removed and washed with PBS three times without disrupting the integrity of biofilms. Fresh BHIS containing NAP ranging from 0.12 to 125 μg/mL were added to each well and incubated at 37°C for 24 h. The negative control was biofilms in BHIS without NAP. The biofilm was fixed, air-dried, stained, and quantified as described above.

[3] = test system: multispecies biofilms on human enamel slabs; test: Biofilm-induced demineralization of human enamel slabs, transverse microradiography; format: cell-based, S. mutans, S. gordonii, S. sanguinis; details: 62.5 μg/mL NAP, 0.2% CHX, 5 min three times per day for 5 days; compared to negative control
Text: Human teeth free of white spots, cracks, and other defects that had been extracted for periodontal or impacted reasons were collected under a protocol approved by the Ethics Committee of West China Hospital of Stomatology, Sichuan University (WCHSIRB-D-2018-107). Crowns were separated from roots and cut into four sections measuring 5mm × 5mm × 2mm by using a diamond-coated saw (Struers Minitom; Struers, Copenhagen, Denmark) under continuous water cooling. The enamel slabs were embedded in polymethylmethacrylate and painted with two layers of acid-resistant nail varnish, leaving a 4mm × 4mm window of the exposed enamel surface. Then, these surfaces were polished progressively with waterproof silicon carbide abrasive papers (800–4000 grit; Struers, Copenhagen, Denmark) and were ultrasonically cleaned in a deionized water for 5 min to remove the residual abrasives. All slabs were sterilized with ethylene oxide. The 30 specimens were randomly divided into 3 groups: PBS, 62.5 μg/mL NAP, and 0.2% CHX. Enamel slabs obtained from the same tooth were evenly distributed to each test group.
Overnight cultures of S. mutans, S. gordonii, and S. sanguinis (1 × 10^7CFU/mL) were simultaneously inoculated on enamel slabs in a 24-well cell culture plate with BHIS at 37°C. Slabs with biofilms were then exposed to PBS, 62.5 μg/mL NAP, and 0.2% CHX for 5 days (5 min, three times per day). The 5-day demineralization duration was in accordance with previous studies. All specimens were then washed in PBS and refreshed with BHIS after every exposure. After 5 days of treatment, specimens were taken out and rinsed with PBS to remove the biofilms. Then, specimens were cut again and polished with a hand plane—parallel from both sides with waterproof silicon carbide abrasive papers (800–4000 grit; Struers, Copenhagen, Denmark) to thickness ranging around […]. X-ray films of experimental lesions were acquired with an X-ray generator (Softex, Japan) equipped with a microradiography camera and then were further examined using a Zeiss AXIO Imager A2 microscope (Carl Zeiss, Germany). Quantitative data was acquired by a calibrated analysis system TMR2006 (Inspektor Research Systems BV, Netherlands). Data are obtained as the mean of 10 separate samples.

[4] = test system: oral streptococcal multispecies biofilms; test: Multispecies biofilm composition by FISH and qPCR; format: cell-based, S. mutans, S. gordonii, S. sanguinis; details: 62.5 μg/mL NAP, 5 min three times per day for 3 days; for total amount of streptococci: 0.2% CHX
Method: The multispecies biofilms were cultivated in accordance with a previous study. Overnight cultures of S. mutans, S. gordonii, and S. sanguinis were simultaneously inoculated (inoculum ratio = 1 : 1 : 1). The chemotaxis chamber μ-Slide, which has extremely low values of birefringence and autofluorescence, was used for bacterial culture and confocal microscopy. Bacterial suspensions (1 × 10^5CFU/mL for each strain) were mixed in 300 μL BHI containing 1% sucrose (BHIS) in the μ-Slide (8 wells, 80826, Ibidi) at 37°C for 24 h. Then, biofilms were exposed to PBS, 62.5 μg/mL NAP, and 0.2% CHX for 3 days (5 min, three times per day). This short-term repeated treatment was to simulate the daily exposure to the mouth rinses. For fluorescent in situ hybridization imaging, biofilms were fixed in 4% paraformaldehyde overnight and investigated by species-specific probes. The multispecies biofilms were imaged with a confocal laser scanning microscope (FV1000, Olympus, Tokyo, Japan). Total DNA of biofilms were isolated and purified using a TIANamp Bacteria DNA kit (TIANGEN, Beijing, China). The purity and concentration of DNA were detected with a NanoDrop 2000 spectrophotometer (Thermo Scientific, Waltham, MA, USA). The extracts were stored at -20°C until use. TaqMan real-time polymerase chain reaction (Life Technologies, Carlsbad, CA, USA) was used to quantify the absolute number of S. mutans, S. gordonii, and S. sanguinis as described by the manufacturer (Takara, Dalian, China).

S. sanguinis biofilm [5] = test: Biofilm formation inhibition, crystal violet (MBIC); format: cell-based, Streptococcus sanguinis; details: 24 h, 90% or more inhibition of biofilm formation
Method: as §1

S. mutans biofilm [6] = test: as above; format: cell-based, Streptococcus mutans; details: 24 h, 90% or more inhibition of biofilm formation
Method: as §1

macrophage RAW264.7 = test: In vitro cytotoxicity/viability, CCK-8; format: cell-based; details: Mus musculus, 5 min, RAW264.7, 5 min exposure, read-out: IC50 (cell viability)
Method: (§3) Cell viability was evaluated by using the Cell Counting Kit-8 (CCK-8, Dojindo, Kumamoto, Japan) assay as described by Park et al.. Test cells were human oral keratinocytes (HOK), human gingival epithelia (HGE), and macrophage RAW264.7 (RAW264.7). Cells were plated in 96-well plates at 10,000 cells/well in minimum essential medium with the Dulbecco's modified Eagle's medium (DMEM) supplemented with 10% fetal bovine serum and 1% antibiotic-antimycotic. The cells were grown in a humidified environment with 5% CO2 at 37°C for 24 hours. Considering the short exposure duration of oral cells to mouth rinses, cells were treated with medium containing NAP (0.12 to 62.5 μg/mL) and positive control CHX for 5 min [27–29]. Then, the cells were washed with PBS twice and were added with the fresh medium (200 μL/well). Each well was added with 10 μL of CCK-8, and after incubation in the CO2 incubator for 1 h to 1.5 h, absorbance was measured at the wavelength of 450 nm. The cell viability was calculated according to the following formula: (%) = (A450oftestgroup − A450ofblankcontrol)/(A450ofnegativecontrol − A450ofblankcontrol) × 100%.

[7] = test system: human gingival epithelial cells (HGE); test: In vitro cytotoxicity/viability, CCK-8; format: cell-based; details: Epithelial cell, 5 min, 5 min exposure
Method: as §3

[8] = test system: human oral keratinocytes (HOK); test: In vitro cytotoxicity/viability, CCK-8; format: cell-based; details: Keratinocyte, 5 min, 5 min exposure, read-out: IC50 (cell viability)
Method: as §3

S. gordonii biofilm [9] = test: Reduction of 1-day-developed biofilm, crystal violet (MBRC); format: cell-based, Streptococcus gordonii; details: S. gordonii 1-day-developed biofilm, 24 h, 90% or more reduction
Method: as §2

S. mutans biofilm [10] = test: as above; format: cell-based, Streptococcus mutans; details: S. mutans 1-day-developed biofilm, 24 h, 90% or more reduction
Method: as §2

[11] = test system: oral streptococcal multispecies biofilms; test: Multispecies biofilm imaging (dead/live, EPS staining, CLSM); format: cell-based, S. mutans, S. gordonii, S. sanguinis; details: 5 min three times per day for 3 days; for structural integrity of multispecies biofilms: 0.2% CHX
Method: The multispecies biofilms were cultivated in accordance with a previous study. Overnight cultures of S. mutans, S. gordonii, and S. sanguinis were simultaneously inoculated (inoculum ratio = 1 : 1 : 1). The chemotaxis chamber μ-Slide, which has extremely low values of birefringence and autofluorescence, was used for bacterial culture and confocal microscopy. Bacterial suspensions (1 × 10^5CFU/mL for each strain) were mixed in 300 μL BHI containing 1% sucrose (BHIS) in the μ-Slide (8 wells, 80826, Ibidi) at 37°C for 24 h. Then, biofilms were exposed to PBS, 62.5 μg/mL NAP, and 0.2% CHX for 3 days (5 min, three times per day). This short-term repeated treatment was to simulate the daily exposure to the mouth rinses.
For dead/live imaging, biofilms were stained with fluorescent LIVE/DEAD BacLight Bacterial Viability stain (Molecular Probes, Invitrogen) containing SYTO 9 and propidium iodide according to the manufacturer's instructions. The labeled biofilms were imaged with a DMIRE2 confocal laser scanning microscope (Leica, Wetzlar, Germany) equipped with a 60x oil immersion objective lens.
For extracellular polysaccharide (EPS) staining, the bacterial cell and the EPS were stained with SYTO 9 (Molecular Probes) and Alexa Fluor 647-labeled dextran conjugate (Molecular Probes) as described previously. The biofilms were captured with a Leica DMIRE2 confocal laser scanning microscope as in live/dead imaging.
All three-dimensional reconstructions of the biofilms were performed with Imaris 7.0.0 (Bitplane, Zürich, Switzerland). The quantification of the dead/live and EPS/bacteria volume ratio was, respectively, performed with Image-Pro Plus (Media Cybernetics, Silver Spring, MD, USA) and COMSTAT (http://www.image-analysis.dk).

[12] = test system: Streptococcus mutans UA159; test: Bacterial susceptibility test, microdilution in BHI (MIC/MBC); format: cell-based; details: S. mutans, planktonic cells
Method: (§4) Streptococcus mutans UA159, Streptococcus gordonii DL1, and Streptococcus sanguinis ATCC 10556 were kindly provided by the State Key Laboratory of Oral Diseases (Sichuan University, Chengdu, China). S. mutans, S. gordonii, and S. sanguinis were routinely grown at 37°C under aerobic condition (5% CO2) in brain heart infusion broth (BHI; Difco, Sparks, MD). Inoculum for the experiment was adjusted to 1 × 10^8CFU/mL for S. mutans, S. gordonii, and S. sanguinis based on the OD600 nm versus CFU/mL graph of each bacterium and further 1 : 100 diluted in the growth culture. When needed, medium was supplemented with 1% sucrose (designated BHIS). The minimum inhibitory concentration (MIC) and minimum bactericidal concentration (MBC) of NAP against S. mutans, S. gordonii, and S. sanguinis were determined by a microdilution method in BHI, as described previously. The concentrations of NAP ranged from 0.97 to 1000 μg/mL (twofold dilutions). BHI broth containing equivalent DMSO (1% to 0.001%, v/v) was used as a solvent control and ran simultaneously to control for the possible growth inhibition caused by the added DMSO. CHX was used as a positive control, cell control (test bacteria and BHI broth) was used as a negative control, and BHI broth was used as a blank control.

[13] = test system: Streptococcus gordonii DL1; test: as above; format: cell-based; details: S. gordonii, planktonic cells
Method: as §4

[14] = test system: Streptococcus sanguinis ATCC 10556; test: as above; format: cell-based; details: ATCC10556, S. sanguinis, planktonic cells
Method: as §4

[15] = parameters: method as in PMID 28573435, PMID 31241371; details: orally 240 mg twice a day, patients with advanced malignancies; cited from earlier work
[16] = 62.5 μg/mL NAP compared to 0.2% CHX

MIC [12] [µg/mL]	MIC [13] [µg/mL]	MIC [14] [µg/mL]	Structure (SMILES)	MBIC (S. gordonii biofilm [1]) [µg/mL]	MBRC (S. sanguinis biofilm [2]) [µg/mL]	depth of biofilm-induced lesion [3]	mineral loss of enamel [3]	total amount of streptococci [4]	MBIC (S. sanguinis biofilm [5]) [µg/mL]	MBIC (S. mutans biofilm [6]) [µg/mL]	IC50 (macrophage RAW264.7) [µg/mL]	IC50 [7] [µg/mL]	IC50 [8] [µg/mL]	MBRC (S. gordonii biofilm [9]) [µg/mL]	MBRC (S. mutans biofilm [10]) [µg/mL]	structural integrity of multispecies biofilms ([11]; 62.5 μg/mL NAP)	MBC [12] [µg/mL]	MBC [13] [µg/mL]	MBC [14] [µg/mL]	further results
1.95 (≈ 3.86 µM)	3.91 (≈ 7.74 µM)	0.49 (≈ 0.969 µM)	[H]/N=C(\N/C(=N/[H])NCCCCCCNC(=N)NC(=N)Nc1ccc(Cl)cc1)Nc1ccc(Cl)cc1 [CHX, Chlorhexidine]	3.91	3.91	significantly reduced	significantly reduced	significantly reduced the total amount of streptococci	1.95	0.98	31.2 to 62.5 (≈ 61.8 to 124 µM)	31.2 to 62.5 (≈ 61.8 to 124 µM)	31.2 to 62.5 (≈ 61.8 to 124 µM)	15.63	62.50	disrupted the structural integrity of multispecies biofilms significantly	7.81 (≈ 15.5 µM)	7.81 (≈ 15.5 µM)	3.91 (≈ 7.74 µM)	
3.91 (≈ 16.3 µM)	0.49 (≈ 2.04 µM)	0.49 (≈ 2.04 µM)	CC(=O)c1cc2c(o1)C(=O)c1ccccc1C2=O [NAP, 2-acetylfuro-1,4-naphathoquinone]	0.49	3.91	significantly reduced	significantly reduced	significantly reduced the total amount of streptococci	1.95	1.95	> 62.5	> 62.5	> 62.5	15.63	62.50	disrupted the structural integrity of multispecies biofilms significantly	15.6 (≈ 65.1 µM)	0.98 (≈ 4.08 µM)	15.6 (≈ 65.1 µM)	multispecies biofilm composition [4]: inhibited S. mutans and S. sanguinis but increased the proportion of the commensal S. gordonii; EPS/bacteria ratio [11, 16]: equivalent; dead/live cell ratio [11, 16]: equivalent dead/live cell ratio; bacteria within the biofilms (volume) ([11]; 62.5 μg/mL NAP vs 0.2% CHX): further reduced the bacteria within the oral streptococcal biofilms as compared to CHX; EPS production in the biofilm ([11]; 62.5 μg/mL NAP): significantly inhibit EPS production; adverse events [15]: generally mild
